1 substance from PMC10732398 (PLOS Pathogens, 2023) can be followed below.

In assay [1] the test system is ⍺4β7 transfected 293T cells. The assay is described as follows: Flow cytometry: staining of 293T cells co-transfected with ⍺4 and β7 expression vectors. The format is binding. The conditions noted are these: PE-labelled ligand, Fig 1C. An excerpt: The FRET/FLIM results described above indicate a direct interaction between CD4 and ⍺4β7. […] To this end we employed a fluorescently labelled soluble dodecameric CD4 Ig fusion protein, termed D1D2-Ig⍺tp, that includes the two N-terminal Ig-like domains of CD4 (D1D2, aa 1–180), followed by IgG1 CH2 and CH3 domains, followed by the 18 aa tail-piece domain of IgA (⍺tp). In this oligomer, 12 D1D2-Igs are arranged in a disulphide linked daisy-chain (Fig 1A). Primary CD4^+ T cells, some of which express ⍺4β7, were reacted with D1D2-Ig⍺tp and analyzed by flow-cytometry. A second oligomeric Ig fusion protein, MicA-Ig⍺tp, which includes the two N-terminal domains of MicA, was employed as a specificity control. […] MAdCAM-Ig was employed as a positive control. […] We conclude that an oligomeric soluble CD4 that includes only its two N-terminal domains can bind to ⍺4β7 in a specific way.
Fig 1 Binding of soluble CD4 to ⍺4β7 on CD4^+ T cells. (A) Schematic of D1D2-Ig⍺tp. […] X-axis indicates geometric mean fluorescence intensity (gMFI). […]
(§1) Cells were stained with fluoresceine conjugated mAbs or recombinant proteins using standard procedures preceded by Fc receptor blocking with human IgG. […] Data were acquired using a FACSCanto II (BD Biosciences) and analyzed with FlowJo software (BD Biosciences). […]

Assay [2] concerns ⍺4β7 on RPMI8866 cells. The assay is described as follows: Flow cytometry: ligand staining of ⍺4β7-expressing cells in buffers with different divalent cations. The conditions noted are these: absence of divalent cations (0.1 mM EDTA). The format is binding, human.
Excerpt: Fig 1 Binding of soluble CD4 to ⍺4β7 on CD4^+ T cells. (A) Schematic of D1D2-Ig⍺tp. (B) Flow-cytometry histogram of PE-conjugated D1D2-Ig⍺tp staining of CD4^+ T cells alone (blue) or in the presence of either the anti ⍺4 mAb 2B4 (green) or an irrelevant mAb (black-dashed). Cells stained with PE-conjugated MicA-Ig⍺tp (red), along with unstained cells (grey) are included. X-axis indicates geometric mean fluorescence intensity (gMFI). (C) 293T cells untransfected or co-transfected with ⍺4 and β7 expression vectors stained with either PE-D1D2-Ig⍺tp or PE-MAdCAM-Ig in the absence or presence of the ⍺4 antagonist FG. Y-axis indicates gMFI. (D) CD4^+ T cells stained with anti CD45RO (x-axis) anti β7 (y-axis) (left), or with anti CD45RO (x-axis) and D1D2-Ig⍺tp (y-axis) (right). % cells in each quadrant, as indicated. (E) CD4^+ T cells stained as in B, with lower MW forms of oligomerized D1D2-Ig⍺tp. Left Y-axis indicates gMFI (bars), right Y-axis indicates relative MW (kDa) (•). […]
as §1

Take “MAdCAM-Ig: recombinant MAdCAM-1 Ig fusion, R&D Systems [reference compound]”: in assay [1], the “binding to ⍺4β7 transfected versus untransfected 293T cells (in words)” value is reported as “bound preferentially to ⍺4β7 transfected cells”. In addition, in assay [2], the “binding to ⍺4β7 (in words)” value is “failed to bind”.
